From article PMC11995724, “Antibiotic target discovery by integrated phenotypic and activity-based profiling of electrophilic fragments” (Cell chemical biology, 2025)

Experiment: in vitro
Conditions: human, hek293t cells
`COc1ccc(C=C(C#N)C(=O)Nc2cccc(C(F)(F)F)c2)cc1` [8-A03, 2-cyano-3-(4-methoxyphenyl)-N-[3-(trifluoromethyl)phenyl]prop-2-enamide] gave a viability at 48 h, 25 µM of 72.2%. Work on `N#CC(=Cc1cccs1)C(=O)Nc1ccc(C(=O)O)cc1` [8-A04, 4-[2-cyano-3-(thiophen-2-yl)prop-2-enamido]benzoic acid] yielded a viability at 48 h, 25 µM of 71.7%. `COc1ccc(C=C(C#N)C(=O)Nc2ccccc2)cc1` [8-A05, 2-cyano-3-(4-methoxyphenyl)-N-phenylprop-2-enamide] showed a viability at 48 h, 25 µM of 76.8%. Work on `Cc1ccc(C=C(C#N)C(=O)Nc2ccc(N3CCOCC3)cc2)s1` [8-A06, 2-cyano-3-(5-methylthiophen-2-yl)-N-[4-(morpholin-4-yl)phenyl]prop-2-enamide] yielded a viability at 48 h, 25 µM of 76.2%. For `CCOc1ccc(C=C(C#N)C(=O)Nc2cccc3ncccc23)cc1` [8-A07, 2-cyano-3-(4-ethoxyphenyl)-N-(quinolin-5-yl)prop-2-enamide], the viability at 48 h, 25 µM was 60.7%. Work on `N#CC(=Cc1cnn(-c2ccc(Cl)cc2)c1)C(=O)NC1CCCCC1` [8-A08, 3-[1-(4-chlorophenyl)-1H-pyrazol-4-yl]-2-cyano-N-cyclohexylprop-2-enamide] yielded a viability at 48 h, 25 µM of 60.6%. Compound `N#CC(=Cc1ccc2c(c1)OCO2)C(=O)NCc1ccccc1` [8-A09, 3-(1,3-dioxaindan-5-yl)-N-benzyl-2-cyanoprop-2-enamide] has a viability at 48 h, 25 µM of 85.6%. Compound `Cc1cc(C)c(NC(=O)C(C#N)=Cc2cc(F)ccc2F)c(C)c1` [8-A10, 2-cyano-3-(2,5-difluorophenyl)-N-(2,4,6-trimethylphenyl)prop-2-enamide] has a viability at 48 h, 25 µM of 2.85%. For `Cc1cccc(C)c1NC(=O)C(C#N)=Cc1ccc(OC(F)F)cc1` [8-A11, 2-cyano-3-[4-(difluoromethoxy)phenyl]-N-(2,6-dimethylphenyl)prop-2-enamide], the viability at 48 h, 25 µM was 56.3%. Compound `N#CC(=Cc1cc(F)ccc1F)C(=O)Nc1cc(Cl)ccc1Cl` [8-A12, 2-cyano-N-(2,5-dichlorophenyl)-3-(2,5-difluorophenyl)prop-2-enamide] has a viability at 48 h, 25 µM of 61%. Work on `Cc1c(C=C(C#N)C(=O)Nc2ccccc2F)cc(C#N)n1C` [8-A13, 2-cyano-3-(5-cyano-1,2-dimethyl-1H-pyrrol-3-yl)-N-(2-fluorophenyl)prop-2-enamide] yielded a viability at 48 h, 25 µM of 83.9%. In the case of `COc1ccc(-c2n[nH]cc2C=C(C#N)C(=O)Nc2ccccc2)cc1` [8-A14, 2-cyano-3-[3-(4-methoxyphenyl)-1H-pyrazol-4-yl]-N-phenylprop-2-enamide], the viability at 48 h, 25 µM was 76.6%. Compound `N#CC(=Cc1ccccc1)C(=O)Nc1ccccc1-c1ccccc1` [8-A15, N-{[1,1'-biphenyl]-2-yl}-2-cyano-3-phenylprop-2-enamide] has a viability at 48 h, 25 µM of 90.1%. `Cc1ccccc1NC(=O)C(C#N)=Cc1cc(C)n(C2CC2)c1C` [8-A16, 2-cyano-3-(1-cyclopropyl-2,5-dimethyl-1H-pyrrol-3-yl)-N-(2-methylphenyl)prop-2-enamide] gave a viability at 48 h, 25 µM of 47.1%. In the case of `COc1ccc(C=C(C#N)C(=O)Nc2c(C)cccc2C)cc1OC` [8-A17, 2-cyano-3-(3,4-dimethoxyphenyl)-N-(2,6-dimethylphenyl)prop-2-enamide], the viability at 48 h, 25 µM was 82.9%. `COc1cc(C=C(C#N)C(=O)Nc2c(C)cc(C)cc2C)cc(OC)c1` [8-A18, 2-cyano-3-(3,5-dimethoxyphenyl)-N-(2,4,6-trimethylphenyl)prop-2-enamide] showed a viability at 48 h, 25 µM of 26.3%. For `COc1cccc(NC(=O)C(C#N)=Cc2ccc([N+](=O)[O-])o2)c1` [8-A19, 2-cyano-N-(3-methoxyphenyl)-3-(5-nitrofuran-2-yl)prop-2-enamide], the viability at 48 h, 25 µM was 72.4%. For `CCc1ccc(NC(=O)C(C#N)=Cc2cccn2C)cc1` [8-A20, 2-cyano-N-(4-ethylphenyl)-3-(1-methyl-1H-pyrrol-2-yl)prop-2-enamide], the viability at 48 h, 25 µM was 58.7%. `COc1cc(Cl)c(C)cc1NC(=O)C(C#N)=CC=Cc1ccccc1` [8-A21, N-(4-chloro-2-methoxy-5-methylphenyl)-2-cyano-5-phenylpenta-2,4-dienamide] showed a viability at 48 h, 25 µM of 82%.
